Experiments:
[1] = In vitro ability to displace the specific binding of [3H]diltiazem to diltiazem receptor in guinea pig skeletal muscle.
[2] = as above; remark: listed apart in the source

| Structure (SMILES) | Kd [1] | Kd [2] |
| --- | --- | --- |
| COc1ccc([C@@H]2Cc3c(ccc(Br)c3OC)N(CCN(C)C)C(=O)[C@@H]2OC(C)=O)cc1 | 120 nM |  |
| COc1ccc([C@@H]2Cc3c(OC)cccc3N(CCN(C)C)C(=O)[C@@H]2OC(C)=O)cc1 | 1800 nM |  |
| COc1ccc([C@@H]2Cc3c(C(=O)OCc4ccccc4)cccc3N(CCN(C)C)C(=O)[C@@H]2OC(C)=O)cc1 | 1400 nM |  |
| CCc1ccc([C@@H]2Cc3c(cccc3C(F)(F)F)N(CCN(C)C)C(=O)[C@@H]2C)cc1 | 1000 nM |  |
| CCCN(C)CCN1C(=O)[C@H](OC(C)=O)[C@H](c2ccc(OC)cc2)Cc2c1cccc2C(F)(F)F | 520 nM |  |
| COc1ccc([C@@H]2Cc3c(cccc3C(F)(F)F)N(C(C)CN(C)C)C(=O)[C@@H]2C)cc1 (stereo partly specified) |  | 540 nM |
| C[C@H]1C(=O)N(CCN(C)C)c2cccc(C(F)(F)F)c2C[C@H]1c1ccc(O)cc1 | 1600 nM |  |
| COc1ccc([C@@H]2Cc3c(cccc3C(F)(F)F)N(CCN(C)C(C)=O)C(=O)[C@@H]2O)cc1 | 13000 nM |  |
| CSc1ccc([C@@H]2Cc3c(cccc3C(F)(F)F)N(CCN(C)C)C(=O)[C@@H]2C)cc1 | 1100 nM |  |
| C=CCN(C)CCN1C(=O)[C@H](OC(C)=O)[C@H](c2ccc(OC)cc2)Cc2c1cccc2C(F)(F)F | 420 nM |  |
| CC[C@H]1C(=O)N(CCN(C)C)c2cccc(C(F)(F)F)c2C[C@H]1c1ccc(OC)cc1 | 600 nM |  |
| COc1ccc([C@@H]2Cc3c(cccc3C(F)(F)F)N(CCN(C)C)C(=O)[C@@H]2O)cc1 | 660 nM |  |
| CCC[C@H]1C(=O)N(CCN(C)C)c2ccccc2C[C@H]1c1ccc(OC)cc1 | 250 nM |  |
| COc1ccc([C@@H]2Cc3c(cccc3C(F)(F)F)N(CCN(C)C(C)C)C(=O)[C@@H]2C)cc1 | 130 nM |  |
| CNCCN1C(=O)[C@H](OC(C)=O)[C@H](c2ccc(OC)cc2)Cc2c1cccc2C(F)(F)F | 160 nM |  |
| C#CCN(C)CCN1C(=O)[C@H](OC(C)=O)[C@H](c2ccc(OC)cc2)Cc2c1cccc2C(F)(F)F | 1800 nM |  |
| COc1ccc([C@@H]2Cc3c(cccc3C(F)(F)F)N(CCN(C)C)C(=O)[C@@H]2C)cc1OC | 2000 nM |  |
| COc1ccc([C@@H]2Cc3ccccc3N(CCN(C)C)C(=O)[C@@H]2OC(C)=O)cc1 | 5100 nM |  |
| COc1ccc([C@@H]2Cc3c(cccc3C(F)(F)F)N(CC[N+](C)(C)C)C(=O)[C@@H]2C)cc1 | 840 nM |  |
| COc1ccc([C@@H]2Cc3c(OC)cccc3N(CCN(C)C)C(=O)[C@@H]2C)cc1 | 400 nM |  |
| CNc1ccc([C@@H]2Cc3c(cccc3C(F)(F)F)N(CCN(C)C)C(=O)[C@@H]2C)cc1 | 570 nM |  |
| COc1ccc([C@@H]2Cc3c(cccc3C(F)(F)F)N(CCN(C)CCCCc3ccccc3)C(=O)[C@@H]2OC(C)=O)cc1 | 220 nM |  |
| CNCCN1C(=O)[C@H](OC(C)=O)[C@H](c2ccc(OCCOC)cc2)Cc2c1cccc2C(F)(F)F | 5800 nM |  |
| COc1ccc([C@@H]2Cc3c(cccc3C(F)(F)F)N(CC(C)N(C)C)C(=O)[C@@H]2C)cc1 (stereo partly specified) | 320 nM |  |
| COc1ccc([C@@H]2Cc3c(ccc(Br)c3OC)N(CCN(C)C)C(=O)[C@@H]2C)cc1 | 120 nM |  |
| CNC(=O)CN1C(=O)[C@H](OC(C)=O)[C@H](c2ccc(OC)cc2)Cc2c1cccc2C(F)(F)F | 15000 nM |  |

From BindingDB's records for doi:10.1021/jm00082a020 (Bristol-Myers Squibb Pharmaceutical Research Institute, 1992)
